The source of these data is patent US20260248815A1, “NEUROACTIVE STEROID FORMULATIONS AND METHODS OF USE THEREOF” (Sage Therapeutics, LLC, priority 2023, published 2026).

Where two headings read alike, the source gives them in different places.

The data set in a line: Open-label single-dose PK study in participants with hepatic impairment and normal hepatic function. The format is in vivo, human. The note with it: GeoMean, single 1.2 mg oral dose softgel capsules; for Cmax / AUC(0-inf) / AUC(0-t) / Tmax / Vd/F: human, in vivo, po, 1.2 mg; for Vd/F: read-out: Vz/F. How it is done: In an open-label, parallel group study to evaluate the PK, safety, and tolerability of Compound I, a single 1.2 mg oral dose of softgel capsules was administered to participants with hepatic impairment and in participants with normal hepatic function. Part 1 of the study comprised participants with moderate hepatic impairment (as determined by the Child-Pugh classifications; Class B (7 to 9 points)) and participants with normal hepatic function assigned to Cohorts 1 and 2, respectively. After Cohort 1 had been completely enrolled, participants with normal hepatic function (Cohort 2) were matched to Cohort 1 participants with respect to sex, mean age (10 years) and mean body mass index (BMI; 20%).
On Day 1, participants in Cohorts 1 and 2 received a single oral dose of 1.2 mg Compound I softgel capsules in the morning. Serial blood samples for PK analysis were collected through 168 hours post dose.

Setting [1] is: Cohort 1: moderate hepatic impairment, N 8.
Where [2] appears, read: Cohort 2: normal hepatic function, N 7.
The mark [3] stands for this setting: Cohort 2: normal hepatic function, N 8.

As for `C[C@H](CC[C@](C)(O)C(F)(F)F)[C@H]1CC[C@H]2[C@@H]3CC=C4C[C@@](C)(O)CC[C@]4(C)[C@H]3CC[C@]12C` [Compound I], under setting [1], the CLz/F came to 5.5 L/h, the tlast is 53.9 h, the AUC(0-inf) stood at 218 ng·h/mL and the AUC(0-t) was determined as 188 ng·h/mL. In addition, under setting [1], the Tmax worked out at 3.69 h and the Vd/F is 153 L. Besides, under setting [2], the CLz/F amounted to 4.71 L/h, the AUC(0-inf) turned out to be 255 ng·h/mL, the AUC(0-t) worked out at 238 ng·h/mL and the Vd/F stood at 151 L. Moreover, under setting [3], the tlast came out at 64.3 h, the highest level (Cmax) was 15.7 ng/mL and the Tmax worked out at 3.99 h. In addition, the peak level (Cohort 1: moderate hepatic impairment (Child-Pugh Class B), N 8) (Cmax) was 12.2 ng/mL.

The term Cmax denotes the maximum level reached in the sampled fluid or tissue. By AUC(0-inf) is commonly meant the area under the concentration-time curve extrapolated to infinity. The AUC(0-t) is the area under the concentration-time curve up to a stated or last time point. Higher therefore signals high exposure. The term Tmax denotes the time from dosing to the highest level.
